Measured values from ChEMBL document CHEMBL1133583, “Design of cancer-specific antitumor agents based on aziridinylcyclopent[b]indoloquinones” (J Med Chem, 2000).

Experiments:
Assay type in all cases: functional
Breast carcinoma cell = assay: In vitro cytotoxicity against breast cancer cells.; details: Homo sapiens
CNS carcinoma cell = assay: In vitro cytotoxicity against CNS cancer cells; details: Homo sapiens
Colon carcinoma cell = assay: In vitro cytotoxicity against colon cancer cells; details: Homo sapiens
[1] = In vitro cytotoxicity against Leukemia cancer cells.; details: Homo sapiens, Cancer cell lines
Melanoma cell = assay: In vitro cytotoxicity against melanoma cancer cells; details: Homo sapiens
Homo sapiens = species on record: Homo sapiens; assay: In vitro cytotoxicity against non-small-cell lung cancer cells; details: Cancer cell lines, read-out: Log LC50 (the source's name) (converted)
Ovarian carcinoma cell = assay: In vitro cytotoxicity against ovarian cancer cells; details: Homo sapiens
Prostatic carcinoma cell = assay: In vitro cytotoxicity against prostate cancer cells.; details: Homo sapiens, read-out: Log LC50 (the source's name) (converted)
Renal cancer cell line = assay: (§1) In vitro cytotoxicity against renal cancer cells.; details: Homo sapiens, read-out: Log LC50 (the source's name) (converted)
[2] = as §1; details: Homo sapiens, Cancer cell lines; read-out: Log LC50 (the source's name) (converted)

Row | SMILES | LC50 (concentration killing 50% of cells) (Breast carcinoma cell) | LC50 (CNS carcinoma cell) | LC50 (50% lethal concentration) (Colon carcinoma cell) | LC50 (lethal concentration 50%) [1] | LC50 (Melanoma cell) | CC50 (Homo sapiens) | LC50 (Ovarian carcinoma cell) | CC50 (Prostatic carcinoma cell) | CC50 (Renal cancer cell line) | CC50 [2]
1 | CC(=O)OC1CCc2c3c(n(C(C)=O)c21)C(=O)C(N1CC1)=C(C)C3=O (stereo not drawn) | 31.6 µM | 17.8 µM | 17 µM | > 100 µM | 8.71 µM | 38 µM | 66.1 µM | 19.5 µM | 16.6 µM | –
2 | COC1CCc2c1[nH]c1c2C(=O)C(C)=C(N2CC2)C1=O (stereo not drawn) | 46.8 µM | 67.6 µM | 47.9 µM | 87.1 µM | 12 µM | 63.1 µM | > 100 µM | 34.7 µM | – | 26.3 µM
3 | CC(=O)OC1CCc2c1[nH]c1c2C(=O)C(C)=C(N2CC2)C1=O (stereo not drawn) | 29.5 µM | 20 µM | 14.1 µM | 50.1 µM | 10.2 µM | 22.4 µM | 39.8 µM | 23.4 µM | 19.1 µM | –
4 | CC1=C(N2CC2)C(=O)c2c([nH]c(C)c2C)C1=O | – | – | – | – | – | 51.3 µM | – | > 100 µM | – | > 100 µM
5 | CC(=O)OCc1[nH]c2c(c1C)C(=O)C(N1CC1)=C(C)C2=O | 26.9 µM | 14.8 µM | 8.32 µM | > 100 µM | 2.29 µM | 33.1 µM | 34.7 µM | 9.77 µM | 28.8 µM | –
6 | CC1=C(N2CC2)C(=O)c2[nH]c(C)c(C)c2C1=O | > 100 µM | > 100 µM | 89.1 µM | > 100 µM | 70.8 µM | 50.1 µM | > 100 µM | > 100 µM | > 100 µM | –
7 | CC1=C(N2CC2)C(=O)c2[nH]c(CO)c(C)c2C1=O | 89.1 µM | 89.1 µM | 63.1 µM | > 100 µM | 39.8 µM | 79.4 µM | > 100 µM | 63.1 µM | – | 58.9 µM
8 | CC1=C(N2CC2)C(=O)c2[nH]c3c(c2C1=O)CCC3=O | 12.6 µM | 7.41 µM | 3.63 µM | > 100 µM | 1.02 µM | 4.27 µM | 13.8 µM | 15.8 µM | 4.57 µM | –
9 | CC(=O)OCc1[nH]c2c(c1C)C(=O)C(C)=C(N1CC1)C2=O | > 100 µM | > 100 µM | > 100 µM | > 100 µM | 70.8 µM | 79.4 µM | > 100 µM | > 100 µM | – | 72.4 µM
10 | CC1=C(N2CC2)C(=O)c2[nH]c3c(c2C1=O)CCC3O (stereo not drawn) | 33.9 µM | 28.8 µM | 35.5 µM | 87.1 µM | 14.1 µM | 60.3 µM | 89.1 µM | 31.6 µM | – | 18.6 µM
11 | CC1=C(N2CC2)C(=O)c2c([nH]c(CO)c2C)C1=O | 27.5 µM | > 100 µM | 47.9 µM | > 100 µM | 4.07 µM | 42.7 µM | > 100 µM | 16.6 µM | 29.5 µM | –
